Measurements taken from article PMC10305181, “A VEGFB-Based Peptidomimetic Inhibits VEGFR2-Mediated PI3K/Akt/mTOR and PLCγ/ERK Signaling and Elicits Apoptotic, Antiangiogenic, and Antitumor Activities” (Pharmaceuticals, 2023).
Like-named read-outs stand apart in the source and are kept apart here. Bridge positions count the residues as written; N and C are the ends. Peptide text beside a SMILES is read from it.

What was measured:
[1] = system: signaling proteins in HUVECs; experiment: Western blot analysis, HUVECs; type: cell-based, human; conditions: 0.40 μM
Protocol: Next, to explore the mechanisms of the antiangiogenic property of C-VGB3, canonical signaling pathways mediated by VEGFR2 were assessed in HUVECs after 24 h incubation with C-VGB3 (0.40 μM). The binding of VEGF to VEGFR2 causes autophosphorylation of its tyrosine kinase domain and increases the receptor′s expression level on the cell surface. Therefore, we evaluated the ability of C-VGB3 to suppress the levels of constitutive and phosphorylated VEGFR2 in HUVECs.
The levels of signaling proteins were investigated by the Western blot assay. 4T1 and HUVE cells stimulated by VEGF (20 ng·mL^−1) were treated with (0.40 μM) or without C-VGB3 (treatment and control groups, respectively) after starvation in a serum-free medium for 24 h. After washing with PBS buffer twice, the cells were treated with RIPA lysis buffer containing (Sigma, St. Louis, MO, USA). Bradford′s test was performed to estimate the protein concentration. Equal amounts of total protein were electrophoresed on a 10% SDS-polyacrylamide gel, separated, and then transferred to a nitrocellulose membrane. Nitrocellulose was soaked in a blocking buffer containing 5% dry milk, Tris-buffered saline, and Tween 20 (TBST) for 1 h at ambient temperature. The nitrocellulose membrane was then washed with wash buffer and treated with antibodies against VEGFR2 p-VEGFR2, AKT, p-AKT, PI3K, mTOR, p-mTOR, NF-κB, p-NFκB, P53, MDM2, Bax, Bcl2, Bid, Bim, Apaf-1, cytochrome c, caspase-9, Fas (CD95), DR4 (CD261), DR5 (CD262), caspase3, caspase7, caspase8, PARP1, ERK 1/2, p-ERK1/2, Ras, Raf, Cdk4, GSK-3β, cyclin D1, vimentin, N-cadherin, E-cadherin, FAK, p-FAK, paxillin, p-paxillin, and β-actin overnight at 4 °C. The next steps were performed as described previously. Because molecular weight ranges of target signaling proteins are very close, individual gels were run for separate signaling proteins (Figure S7).

4T1 cells = experiment: Annexin V/PI flow cytometry, 4T1 cells; type: cell-based, murine; conditions: 0.40 μM, 24 h, VEGF 20 ng·mL^−1; control 1.80; n = 3; p < 0.0001
Protocol: An important consequence of VEGF signals is cell survival dominantly via PI3K/AKT/mTOR pathway. Thus, inhibition of VEGF signals leads to the induction of apoptosis. Accordingly, the ability of C-VGB3 to induce apoptosis was investigated. First, apoptotic endothelial and tumor cells were analyzed by flow cytometry after staining with annexin V-FITC and PI. (Figure 6A). Treatment with C-VGB3 (0.40 μM) induced significant apoptosis in both cell lines compared to the controls. […] Apoptosis induction by C-VGB3 was further characterized by the TUNEL assay, as an indicator of late apoptosis, with a confocal microscope (Figure 6B).
Annexin V/Propidium Iodide flow cytometry was performed to investigate the C-VGB3 effect on apoptosis induction, as previously described, with some modifications. […]

HUVECs = experiment: MTT assay, HUVECs; type: cell-based, human; conditions: VEGF 20 ng·mL^−1, C-VGB3 0–0.91 μM, n = 3, read-out: half-inhibitory concentration (IC50), cell viability
Protocol: Figure 4 Inhibition of EC proliferation and tubulogenesis by C-VGB3 through abrogation of VEGFR2-mediated signaling pathways. (A) MTT assay was performed to investigate C-VGB3 effect on the proliferation of ECs. C-VGB3 (0–0.91 μM) was used with (20 ng·mL^−1) or without VEGF. The control cells were treated with no peptide. After 24 and 48 h, the absorbance was measured at 570 nm utilizing an ELISA plate reader (Space Fax 2100, Awareness, Westport, CT, USA). Error bars indicate ± SEM. n = 3; * p = 0.02, ** p = 0.001, *** and ### p = 0.0001, **** and #### p < 0.0001, ns = not significant; one-way ANOVA. (B) The anti-tubulogenesis effect of C-VGB3 in VEGF (20 ng·mL^−1)-induced HUVECs. Image analysis performed by Wimasis image analysis software is illustrated in the bottom panel. Error bars indicate ±SEM. n = 3; *** 0.0004 ≤ p ≤ 0.0001; unpaired Student’s t-test. To evaluate the mechanism by which C-VGB3 diminished cell proliferation and tube formation, Western blot analysis was performed for HUVECs. […]
The effects of C-VGB3 and L-VGB3 on the cell survival of HUVE and 4T1 cell lines were investigated using the MTT assay, as previously described, with some modifications. […] After 24 and 48 h of incubation at 37 °C, the absorbance at 570 nm was recorded using an ELISA plate reader (Space Fax 2100, Awareness, Palm City, FL, USA). […]

With CC(C)C[C@@H]1NC(=O)CNC(=O)[C@H](CC(=O)O)NC(=O)[C@H](CC(=O)O)NC(=O)[C@@H]2CCCN2C(=O)[C@@H]2CCCN2C(=O)[C@H](CCCNC(=N)N)NC(=O)[C@@H](NC(=O)[C@@H](N)CCC(=O)O)CSSC[C@@H](C(=O)O)NC1=O [C-VGB3] (H-ECRPPDDGLC-OH; disulfide 2-10) the AKT level ([1]; 24 h, p < 0.0001) was “markedly reduced”, the CDK4 level ([1]; 24 h, p < 0.0001) was “decreased” and the RAS level ([1]; 24 h, p < 0.0001) was “decreased”. For the same compound, the mTOR total expression ([1]; 24 h, p < 0.0001) was “strongly suppressed”, the p-AKT level ([1]; 24 h, p < 0.0001) was “markedly reduced” and the p-VEGFR2 formation ([1]; 24 h, p < 0.0001) was “markedly inhibited”. The CyclinD1 level ([1]; 24 h, p = 0.0001) was “decreased”, the p-ERK1/2 level ([1]; 24 h, p = 0.0001) was “decreased” and the GSK3 expression ([1]; 24 h, p = 0.001) was “increased expression”. The NF-κB phosphorylation ([1]; 24 h, p = 0.001) was “suppressed”, the PI3K expression level ([1]; 24 h, p = 0.001) was “decreased” and the RAF level ([1]; 24 h, p = 0.001) was “decreased”. For the same compound, the VEGFR2 level ([1]; 24 h, p = 0.001) was “markedly inhibited”, the mTOR phosphorylation ([1]; 24 h, p = 0.001) was “strongly suppressed” and the ERK1/2 level ([1]; 24 h, p = 0.02) was “decreased”. For the same compound, the NF-κB expression ([1]; 24 h, p = 0.02) was “decreased”, the “increase in cleaved PARP1” value ([1]; HUVECs (first of 'respectively'), p < 0.0001) was 3.50 fold and the “increase in Bax/Bcl2 ratio” value ([1]; HUVECs) was “approximately 3.35 fold”. For the same compound, the “increased level of cleaved caspase-3” value ([1]; HUVECs) was 3.8 times, the “increased level of cleaved caspase-7” value ([1]; HUVECs) was 3.3 times and the “increased level of cleaved caspase-9” value ([1]; HUVECs) was 1.4 times. The Bid expression level ([1]; HUVECs, p < 0.0001) was “increased”, the Apaf1 ([1]; HUVECs, p = 0.0001) was “increase” and the Bax level ([1]; HUVECs, p = 0.0001) was “increased”. The Bcl2 expression ([1]; HUVECs, p = 0.0001) was “decrease”, the P53 level ([1]; HUVECs, p = 0.0001) was “enormously increased” and the Bim level ([1]; HUVECs, p = 0.001) was “increased”. For the same compound, the DR4 level ([1]; HUVECs, p = 0.001) was “increase”, the MDM2 level ([1]; HUVECs, p = 0.001) was “markedly decreased” and the DR5 level ([1]; HUVECs, p = 0.02) was “increase”. For the same compound, the Fas expression ([1]; HUVECs, p = 0.02) was “slightly increased”, the cytochrome c ([1]; HUVECs, p = 0.02) was “increase” and the level of apoptotic cells (4T1 cells) was 22.6%. For the same compound, the IC50 (HUVECs; 24 h) was 510 nM and the IC50 (HUVECs; 48 h) was 380 nM.
